The results in this text go back to ChEMBL document CHEMBL1201862, “PubChem BioAssay data set” (2004).

Some test systems named below: A498; A549; DU-145; EKVX; HCC 2998; HCT-116; HOP-92; HT-29; MDA-MB-435; NCI-H226; NCI-H23; NCI-H460; NCI-H522; OVCAR-3; OVCAR-8; RPMI-8226; RXF 393; SF-539; SK-MEL-5; SNB-75.
Common to all, as to assay: NCI tumour cell line growth inhibition, 48 h

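Five compound concentrations were applied to cells in 96-well plates for 48 hours; endpoints were derived by simple linear interpolation of the resulting dose-response curve. GI50 marks 50% less growth.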 The source made the active and inactive calls. Rule as the data show it: active = GI50 up to about 1.1 µM and inactive = higher. Starred links: 1 amine or outer side, 2 acyl side, 3 side chain; linkers in the order of their positions; H or OH if unused. Non-standard residues stand in square brackets, D forms with d. Residues, ends and D or L forms follow the SMILES beside them. X4 = C[C@H](N[*:1])C(=O)C(C)(C)C(=O)[*:2]; Hmpa(2S,3S) = CC[C@H](C)[C@H](O)C(=O)O; NMeY = CN[C@@H](Cc1ccc(O)cc1)C(=O)O; NMeL = CN[C@@H](CC(C)C)C(=O)O; NMeV = CN[C@H](C(=O)O)C(C)C; βAla = NCCC(=O)O

In the case of `COc1cc(C(=O)Oc2c(C#N)sc3c2c(=O)n(-c2ccccc2)c(=S)n3-c2ccccc2)cc(OC)c1OC`, the GI50 in the test on A498 is 4.1 µM (inactive); in the test with A549, 21.5 µM (inactive); with DU-145, 19.8 µM (inactive); with EKVX, 19.3 µM (inactive); in the test with HCC 2998, 19.6 µM (inactive); in the test with HCT-116, 16.3 µM (inactive). The GI50 with HOP-92 was 14.6 µM (inactive); in the test on HT-29, 3.4 µM (inactive); in the test with MDA-MB-435, 15.1 µM (inactive); in the test with NCI-H226, 4.73 µM (inactive); in the test with NCI-H23, 18.1 µM (inactive); in the test with NCI-H460, 21.9 µM (inactive). For the same compound, the GI50 with NCI-H522 was 0.361 µM (active); with OVCAR-3 it was 22.7 µM (inactive); with OVCAR-8, 10.9 µM (inactive); in the test on RPMI-8226, 9.08 µM (inactive); with RXF 393, 8.99 µM (inactive); with SF-539, 4.71 µM (inactive). Also, the GI50 with SK-MEL-5 was 17.3 µM (inactive); in the test on SNB-75, 14.4 µM (inactive).
As for `COc1cc(C(c2c(O)c3ccccc3oc2=O)c2c(O)c3ccccc3oc2=O)ccc1O`, the GI50 with A498 is 51.9 µM (inactive); with A549, 59.7 µM (inactive); with DU-145, 21.6 µM (inactive); in the test on EKVX, 27.9 µM (inactive); with HCC 2998, 18.9 µM (inactive); with HCT-116, 34 µM (inactive). For the same compound, the GI50 with HOP-92 was 14.6 µM (inactive); in the test with HT-29 it was 21.1 µM (inactive); with MDA-MB-435, 33 µM (inactive); in the test with NCI-H226, 50.4 µM (inactive); with NCI-H23 it was 39 µM (inactive); with NCI-H460, 20.9 µM (inactive). Moreover, the GI50 was 20.8 µM (inactive) in the test with NCI-H522; 19.5 µM (inactive) in the test with OVCAR-3; 27.7 µM (inactive) in the test with OVCAR-8; 34.6 µM (inactive) in the test on RPMI-8226; 18 µM (inactive) in the test on RXF 393; 23.3 µM (inactive) with SF-539. Besides, the GI50 in the test with SK-MEL-5 was 15.7 µM (inactive); in the test with SNB-75, 20.7 µM (inactive).
Regarding `CC[C@H](C)[C@@H]1OC(=O)CCNC(=O)[C@@H](C)NC(=O)C(C)(C)C(=O)[C@H](C)NC(=O)[C@H](Cc2ccc(OC)cc2)N(C)C(=O)[C@H](C(C)C)N(C)C(=O)CNC(=O)[C@H](CC(C)C)N(C)C(=O)CNC1=O` (cyclo(G[NMeL]G[NMeV][NMeY](Me)[X4][dA][βAla][Hmpa(2S,3S)])), the GI50 is 1.38 µM (inactive) in the test with A498; 0.37 µM (active) with A549; 2.71 µM (inactive) in the test on DU-145; 3.24 µM (inactive) with EKVX; 0.0715 µM (active) with HCC 2998; 0.0352 µM (active) in the test with HCT-116. For the same compound, the GI50 in the test with HOP-92 is 0.665 µM (active); in the test on HT-29, 1.84 µM (inactive); with MDA-MB-435, 0.953 µM (active); in the test on NCI-H226, 5.92 µM (inactive); with NCI-H23, 0.262 µM (active); in the test on NCI-H460, 0.0615 µM (active). The GI50 is 0.0295 µM (active) with NCI-H522; 0.621 µM (active) in the test with OVCAR-3; 3.58 µM (inactive) with OVCAR-8; 0.0726 µM (active) in the test with RPMI-8226; 0.733 µM (active) with RXF 393; 0.252 µM (active) with SF-539. Further, the GI50 was 0.0879 µM (active) in the test with SK-MEL-5 and 0.348 µM (active) in the test on SNB-75.
For the compound `C=C1C(=O)O[C@H]2[C@H](OC(C)=O)[C@@H](C)CCC/C(C)=C/CC[C@@]3(C)O[C@@H]3C[C@@H]12`, the GI50 in the test with A498 was 3.56 µM (inactive); in the test on A549, 7.35 µM (inactive); in the test on DU-145 it was 2.32 µM (inactive); with EKVX, 3.42 µM (inactive); in the test with HCC 2998, 5.27 µM (inactive); in the test on HCT-116 it was 2.23 µM (inactive). Also, the GI50 was 1.92 µM (inactive) in the test with HOP-92; 2.94 µM (inactive) in the test on HT-29; 3.24 µM (inactive) in the test with MDA-MB-435; 1.5 µM (inactive) with NCI-H226; 4.04 µM (inactive) with NCI-H23; 5.26 µM (inactive) in the test with NCI-H460. The GI50 with NCI-H522 is 1.78 µM (inactive); in the test on OVCAR-3, 4.97 µM (inactive); with OVCAR-8 it was 0.885 µM (active); in the test with RPMI-8226 it was 1.4 µM (inactive); with RXF 393, 1.87 µM (inactive); in the test with SF-539, 1.95 µM (inactive). In addition, the GI50 in the test on SK-MEL-5 is 4.19 µM (inactive); with SNB-75, 6.21 µM (inactive).
As to `COc1ccc(/C=C2\CC3C4CC=C5C[C@@H](N6CCCC6)CC[C@]5(C)C4CC[C@]3(C)[C@H]2O)cc1OC` (stereo not given in full), the GI50 is 8.2 µM (inactive) with A498; 9.46 µM (inactive) in the test with A549; 11.2 µM (inactive) with DU-145; 8.79 µM (inactive) in the test with EKVX; 5.52 µM (inactive) in the test with HCC 2998; 8.24 µM (inactive) in the test on HCT-116. Besides, the GI50 is 10.7 µM (inactive) in the test on HOP-92; 4.13 µM (inactive) with HT-29; 6.7 µM (inactive) in the test with MDA-MB-435; 10.5 µM (inactive) in the test on NCI-H226; 9.04 µM (inactive) in the test on NCI-H23; 9.16 µM (inactive) with NCI-H460. Moreover, the GI50 was 8.22 µM (inactive) in the test with NCI-H522; 8.32 µM (inactive) with OVCAR-3; 10.6 µM (inactive) in the test on OVCAR-8; 7.52 µM (inactive) with RPMI-8226; 8.77 µM (inactive) in the test on RXF 393; 7.06 µM (inactive) in the test on SF-539. Moreover, the GI50 in the test on SK-MEL-5 is 7.26 µM (inactive); in the test on SNB-75 it was 12.2 µM (inactive).
For the compound `Cc1ccccc1-n1c(=O)nc2n(-c3ccc(C(C)(C)C)cc3)c3ccccc3cc-2c1=O`, the GI50 was 30.5 µM (inactive) with A498; 31.3 µM (inactive) in the test with A549; 21.1 µM (inactive) in the test on DU-145; 22.4 µM (inactive) in the test with EKVX; 18.1 µM (inactive) in the test with HCC 2998; 15.5 µM (inactive) with HCT-116. The GI50 was 21.4 µM (inactive) with HOP-92; 16.5 µM (inactive) in the test on HT-29; 11.3 µM (inactive) in the test on MDA-MB-435; 18.8 µM (inactive) with NCI-H226; 21.7 µM (inactive) with NCI-H23; 15.3 µM (inactive) in the test with NCI-H460. Besides, the GI50 was 21.7 µM (inactive) in the test on NCI-H522; 18.4 µM (inactive) in the test with OVCAR-3; 17.1 µM (inactive) in the test with OVCAR-8; 24.2 µM (inactive) in the test with RPMI-8226; 21.8 µM (inactive) in the test with RXF 393; 17.8 µM (inactive) in the test on SF-539. The values for the GI50 in the test with SK-MEL-5 and in the test with SNB-75 were 15.1 µM (inactive) and 22.3 µM (inactive), respectively.
As to `COc1ccc(-n2c(=O)c3nc(S)[nH]c3n(-c3ccc(OC)cc3)c2=S)cc1`, the GI50 in the test on A498, in the test with A549, in the test with DU-145, with EKVX, with HCC 2998 and with HCT-116 was > 100 µM (inactive) in each case. The GI50 in the test with HOP-92, with HT-29, with MDA-MB-435, in the test on NCI-H226, in the test on NCI-H23 and with NCI-H460 was > 100 µM (inactive) throughout. Also, the GI50 in the test on NCI-H522 was 57.4 µM (inactive); with OVCAR-3, > 100 µM (inactive); with OVCAR-8, > 100 µM (inactive); in the test with RPMI-8226, > 100 µM (inactive); with RXF 393, > 100 µM (inactive); with SF-539, > 100 µM (inactive). Further, the GI50 in the test on SK-MEL-5 and in the test with SNB-75 was > 100 µM (inactive) in each case.
Regarding `CC(=O)Oc1c(C)c2c(O)c3c1C1=C(OCOC1=C(C)C3=O)/C(C)=C/C(C)(O)C(O)C(C)C(O)C1C(=O)OC(C(C)C1O)C(C)(O)/C=C\C=C(C)C(=O)N2` (stereo not given), the GI50 in the test on A498 was 15.1 µM (inactive); in the test on A549, 76 µM (inactive); in the test with DU-145, 45.4 µM (inactive); with EKVX it was 10.7 µM (inactive); in the test with HCC 2998 it was 69.5 µM (inactive); with HCT-116 it was 57.1 µM (inactive). Moreover, the GI50 was 20.7 µM (inactive) in the test on HOP-92; > 100 µM (inactive) in the test with HT-29; > 100 µM (inactive) with MDA-MB-435; 18.1 µM (inactive) in the test with NCI-H226; 50.5 µM (inactive) in the test with NCI-H23; > 100 µM (inactive) in the test with NCI-H460. For the same compound, the GI50 in the test on NCI-H522 is 49.1 µM (inactive); with OVCAR-3 it was 43.3 µM (inactive); with OVCAR-8, 70 µM (inactive); in the test with RPMI-8226, 86.9 µM (inactive); in the test with RXF 393, 18.5 µM (inactive); with SF-539, 10.4 µM (inactive). Further, the GI50 in the test on SK-MEL-5 is 32.4 µM (inactive); with SNB-75 it was 24 µM (inactive).
With `CC1=NN(C(=O)c2ccccc2O)C(=O)/C1=C/c1ccco1`, the GI50 with A498 is 2.43 µM (inactive); in the test on A549, 7.19 µM (inactive); with DU-145, 4.74 µM (inactive); with EKVX it was 3.06 µM (inactive); in the test with HCC 2998, > 22.8 µM (inactive); in the test with HCT-116, 2.23 µM (inactive). The GI50 with HOP-92 was 7.03 µM (inactive); with HT-29, 12.4 µM (inactive); in the test on MDA-MB-435, 0.581 µM (active); with NCI-H226 it was 3.46 µM (inactive); with NCI-H23, 1.53 µM (inactive); with NCI-H460, 1.59 µM (inactive). The GI50 in the test with NCI-H522 was 1.74 µM (inactive); in the test with OVCAR-3, 0.65 µM (active); in the test on OVCAR-8, 2.59 µM (inactive); in the test on RPMI-8226, 5.57 µM (inactive); in the test with RXF 393, 0.171 µM (active); with SF-539 it was 0.818 µM (active). Further, the GI50 in the test on SK-MEL-5 was 1.36 µM (inactive); in the test on SNB-75, 3.02 µM (inactive).
